Measurements from the supplement of paper PMC10307832.

What was measured:
Assay in all cases: relative viability (nuclei count vs DMSO), 5 days (fraction); higher = more cells survive
[1] = compound: CC1=C(C(=O)N2C=CSC2=N1)CCN3CCC(=C(C4=CC=CC=C4)C5=CC=C(C=C5)F)CC3
Summary of the method: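 Only plates meeting two conditions passed: control CV below 25% and at least one doubling. Lung cancer cell lines, kept overnight at 37 °C in 1536-well plates, were pinned with five library-drug doses (not always all listed) √10 apart on vehicle-anchored plates and grown 5 days without medium change. A one-step fix, permeabilisation and Hoechst stain preceded 4× imaging and MetaXpress nuclear counting. Viability equals treated-well nuclei divided by vehicle-well nuclei, as the median over plates.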

[2] = compound: CC1=C(C(=O)N2C=CSC2=N1)CCN3CCC(=C(C4=CC=CC=C4)C5=CC=C(C=C5)F)CC3 + Cc1cc(Nc2cc(N3CCN(C)CC3)nc(Sc3ccc(NC(=O)C4CC4)cc3)n2)n[nH]1 [Tozasertib] (partner 0.1 µM)
Summary of the method: (§1)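 Lung cancer cell lines in 1536-well plates were dosed by pin tool the day after seeding, either with one drug alone or with a fixed anchor-drug dose plus five library-drug doses (not always all listed) in √10 steps. After 5 days, cells were fixed and their nuclei stained in one step (final 0.05% Triton X-100, 1% formaldehyde, 1 ug/ml Hoechst), then counted on 4× images. Relative viability is the nuclei count in treated wells divided by that in vehicle wells. Values are medians of duplicate plates.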

[3] = compound: CC1=C(C(=O)N2C=CSC2=N1)CCN3CCC(=C(C4=CC=CC=C4)C5=CC=C(C=C5)F)CC3 + N=C(N)NC(=N)NCCc1ccccc1 [Phenformin] (partner 250 µM)
Summary of the method: as §1

[4] = compound: CC1=C(C(=O)N2C=CSC2=N1)CCN3CCC(=C(C4=CC=CC=C4)C5=CC=C(C=C5)F)CC3 + CC1(C)CCC(c2ccc(Cl)cc2)=C(CN2CCN(c3ccc(C(=O)NS(=O)(=O)c4ccc(N[C@H](CCN5CCOCC5)CSc5ccccc5)c(S(=O)(=O)C(F)(F)F)c4)cc3)CC2)C1 [Navitoclax] (partner 0.5 µM)
Summary of the method: as §1

Row | Cell Line | relative viability ([1]; 0.08 µM) | relative viability ([1]; 0.253 µM) | relative viability ([1]; 0.8 µM) | relative viability ([1]; 2.53 µM) | relative viability ([1]; 8 µM) | relative viability ([2]; first compound 0.08 µM) | relative viability ([2]; first compound 0.253 µM) | relative viability ([2]; first compound 0.8 µM) | relative viability ([2]; first compound 2.53 µM) | relative viability ([2]; first compound 8 µM) | relative viability ([3]; first compound 0.08 µM) | relative viability ([3]; first compound 0.253 µM) | relative viability ([3]; first compound 0.8 µM) | relative viability ([3]; first compound 2.53 µM) | relative viability ([3]; first compound 8 µM) | relative viability ([4]; first compound 0.08 µM) | relative viability ([4]; first compound 0.253 µM) | relative viability ([4]; first compound 0.8 µM) | relative viability ([4]; first compound 2.53 µM) | relative viability ([4]; first compound 8 µM)
1 | NCI-H1666 | 0.936 | 0.941 | 0.978 | 1.06 | 0.815 | 0.596 | 0.591 | 0.655 | 0.642 | 0.493 | 0.531 | 0.609 | 0.581 | 0.591 | 0.527 | 0.991 | 0.854 | 1.04 | 1.16 | 0.836
2 | NCI-H1734 | 0.975 | 1.08 | 0.976 | 0.955 | 0.62 | 0.253 | 0.237 | 0.266 | 0.27 | 0.234 | 0.419 | 0.378 | 0.371 | 0.405 | 0.322 | 0.732 | 0.818 | 0.966 | 0.795 | 0.493
3 | NCI-H1755 | 0.926 | 0.998 | 1.04 | 1.02 | 0.777 | 0.553 | 0.614 | 0.604 | 0.547 | 0.421 | 0.681 | 0.659 | 0.578 | 0.66 | 0.565 | 0.932 | 1.02 | 1.1 | 1.02 | 0.56
4 | NCI-H1793 | 0.761 | 0.891 | 0.912 | 0.831 | 0.711 | 0.354 | 0.339 | 0.312 | 0.362 | 0.258 | 0.301 | 0.379 | 0.404 | 0.402 | 0.241 | 0.376 | 0.512 | 0.395 | 0.507 | 0.374
5 | NCI-H1915 | 1.07 | 1 | 1.01 | 1.01 | 0.732 | 0.438 | 0.442 | 0.444 | 0.432 | 0.318 | 0.376 | 0.377 | 0.365 | 0.363 | 0.317 | 0.741 | 0.691 | 0.832 | 0.807 | 0.725
6 | NCI-H1944 | 0.969 | 0.94 | 0.96 | 0.958 | 0.751 | 0.26 | 0.273 | 0.226 | 0.224 | 0.204 | 0.195 | 0.207 | 0.229 | 0.188 | 0.182 | 1.03 | 0.916 | 1.02 | 1.06 | 1.06
7 | NCI-H1975 | 0.893 | 0.961 | 1 | 0.992 | 0.662 | 0.852 | 0.63 | 0.816 | 0.922 | 0.37 | 0.393 | 0.425 | 0.397 | 0.441 | 0.381 | 1.08 | 1.02 | 1.17 | 1.26 | 0.573
8 | NCI-H1993 | 0.972 | 0.816 | 0.862 | 1.03 | 0.866 | 0.627 | 0.502 | 0.557 | 0.64 | 0.495 | 0.505 | 0.411 | 0.51 | 0.568 | 0.536 | 0.954 |  | 1.12 | 1.05 | 0.917
9 | NCI-H2009 | 1.06 | 1.07 | 0.999 | 1.05 | 0.871 | 0.775 | 0.668 | 0.738 | 0.756 | 0.478 | 0.541 | 0.492 | 0.493 | 0.49 | 0.362 | 1.15 | 1.14 | 1.18 | 1.22 | 1.09
10 | NCI-H2023 | 0.997 | 0.884 | 0.991 | 1.11 | 0.695 | 0.446 | 0.265 | 0.393 | 0.44 | 0.272 | 0.441 | 0.312 | 0.426 | 0.389 | 0.251 | 0.99 | 0.894 | 0.997 | 1.08 | 1.09
11 | NCI-H2085 | 1 | 1.07 | 1.04 | 0.973 | 0.82 | 0.896 | 0.735 | 0.747 | 0.844 | 0.702 | 0.769 | 0.699 | 0.661 | 0.762 | 0.591 | 1.12 | 1.1 | 1.21 | 1.1 | 0.908
12 | NCI-H2087 | 0.878 | 1.22 | 1.13 | 0.933 | 0.62 | 0.298 | 0.245 | 0.276 | 0.242 | 0.23 | 0.333 | 0.434 | 0.529 | 0.585 | 0.323 | 1 | 0.712 | 0.995 | 1.23 | 0.794
13 | NCI-H2126 | 0.966 | 0.991 | 1.05 | 1.04 | 0.914 | 0.889 | 0.913 | 0.846 | 0.986 | 0.739 | 0.518 | 0.541 | 0.525 | 0.555 | 0.517 | 0.835 | 0.839 | 0.846 | 0.971 | 0.799
14 | NCI-H2170 | 0.768 | 0.9 | 1.02 | 1 | 0.697 | 0.704 | 0.804 | 0.741 | 0.781 | 0.404 | 0.42 | 0.42 | 0.37 | 0.417 | 0.39 | 0.515 | 0.605 | 0.649 | 0.492 | 0.58
15 | NCI-H2228 | 1.02 | 0.978 | 1.15 | 1.1 | 0.597 | 0.278 | 0.237 | 0.227 | 0.232 | 0.282 | 0.261 | 0.301 | 0.376 | 0.348 | 0.256 | 0.693 | 0.914 | 0.811 | 0.838 | 0.623
